These results are taken from article PMC10940605, “Design, synthesis and in vitro anticancer activity of some new lomefloxacin derivatives” (Scientific Reports, 2024).

One data set concerns HCT-15. Put plainly: NCI-60 SRB screen. The note with it: Homo sapiens; HCT-15, 10^–5 Molar; read-out: Percent growth inhibition. Format: cell-based. Here is the method:
(§1) All newly synthesized compounds were selected and screened for anticancer activity against 60 human cancer cell lines representing 9 types of tumors including leukemia, melanoma, lung, colon, CNS, ovarian, renal, prostate, and breast cancers at the National Cancer Institute (NCI), Bethesda, USA. Screening was performed utilizing a single dose (10^−5 M concentration) and cells were incubated for 48 h. The end point was determined using sulforhodamine B (SRB) dye.
(§2) In this study, all the 16 newly synthesized compounds were submitted to the National Cancer Institute (USA) for anticancer evaluation and were selected and evaluated using 60 different human tumor cell lines representing lung, colon, CNS, ovarian, renal, prostate, breast cancers as well as leukemia and melanoma. A single dose (10^–5 Molar) was used for the initial screening for evaluation of anticancer activity. The 60 human cancer cell lines were provided by the national cancer institute biomedical research campus in Frederick, Maryland.
(§3) 60 different human cancer cell lines were utilized to screen the newly synthesized compounds for anticancer activity according to the previously reported standard procedure[24]–[26] as follows: • 96 well microtiter plates were used to inoculate the cells at […] ranging from 4000–5000 cells/well depending on the replication time of individual cell lines. Roswell Park Memorial Institute culture medium (RPMI 1640 medium) containing 2 mM L-glutamine and fetal bovine serum was used to grow the cells at 37 °C, 5% CO2, 95% air and 100% relative humidity for 24 h. • Fixation of cells in two plates of each cell line in situ was done using trichloroacetic acid (TCA). This represented the measurement of cell population at the time of drug addition (Tz). • Dimethyl sulfoxide (DMSO) was used to dissolve the synthesized compounds at 400-fold the desired final maximum concentration and frozen prior to use. This frozen concentrate was melted and diluted to twice the final concentration with complete medium containing 50 µg/mL gentamycin at time of drug addition. • The final compound concentration was obtained by adding 100 µL of the synthesized compounds to the appropriate microtiter wells already containing 100 µL followed by incubation of the plates at 37 °C, 5% CO2, 95% air and 100% relative humidity for 48 h. • Fixation of the cells was achieved by gentle addition of 50 µL of cold 50% (w/v) TCA followed by incubation for 60 min at 4 °C. The supernatant was then discarded and the plates are washed 5 times with tap water and air dried. • Sulphorhodamine B (SRB) solution (100 µL) at 0.4% (w/v) in 1% acetic acid was added to each plate followed by incubation for 10 min at room temperature. The unbound dye was then removed by washing five times with 1% acetic acid and plates were air dried. • Dissolution of the bound stain was done using […] trizma base and the absorbance was read at […] wavelength using an automated plate reader. • The percentage growth inhibition was calculated as follows: Ti-Tz/C-Tz×100forconcentrationswhichTi≥Tz Ti-Tz/Tz×100forconcentrationswhichTi<Tz • Time zero (Tz) • Control growth (C) • Test growth in the presence of drug (Ti)

The next data set concerns SN12C. Put plainly: NCI-60 SRB screen. Format: cell-based. Conditions: Homo sapiens, 10^–5 Molar, read-out: Percent growth inhibition. Here is the method: as §1, §2, §3
The next data set relates to K-562. Put plainly: NCI-60 SRB screen. Format: cell-based. The note with it: Homo sapiens, K562; K-562, 10^–5 Molar; read-out: Percent growth inhibition. Here is the method: as §1, §2, §3
For a further data set, the system named is MCF7. Put plainly: NCI-60 SRB screen. It is filed as cell-based. The note with it: Homo sapiens; MCF7, 10^–5 Molar; read-out: Percent growth inhibition. Here is the method: as §1, §2, §3
A further data set relates to UO-31. Put plainly: NCI-60 SRB screen. Format: cell-based. Conditions: Homo sapiens; UO-31, 10^–5 Molar; read-out: Percent growth inhibition. Here is the method:
as §1, §2, §3

In a further data set the test system is UACC-62. Put plainly: NCI-60 SRB screen. Conditions: Homo sapiens; UACC-62, 10^–5 Molar; read-out: Percent growth inhibition. It is filed as cell-based. Here is the method: as §1, §2, §3
Another data set has as its system SNB-75. Put plainly: NCI-60 SRB screen. Format: cell-based. Conditions: Homo sapiens; SNB-75, 10^–5 Molar; read-out: Percent growth inhibition. Here is the method:
as §1, §2, §3

For the next data set, the system named is SF-268. Put plainly: NCI-60 SRB screen. Format: cell-based. Conditions: Homo sapiens; SF-268, 10^–5 Molar; read-out: Percent growth inhibition. Here is the method: as §1, §2, §3
A further data set relates to CAKI-1. Put plainly: NCI-60 SRB screen. Format: cell-based. The note with it: Homo sapiens; CAKI-1, 10^–5 Molar; read-out: Percent growth inhibition. Here is the method: as §1, §2, §3
A further data set relates to HS 578T. Put plainly: NCI-60 SRB screen. The note with it: Homo sapiens, 10^–5 Molar, read-out: Percent growth inhibition. It is filed as cell-based. Here is the method:
as §1, §2, §3

The subject of data set [1] is 60 human cancer cell lines. Put plainly: NCI-60 SRB screen, whole panel. Format: cell-based. The note with it: Homo sapiens, 48 h; One Dose Mean Graph, Conc 1.00E-5 Molar; read-out: Mean Growth Percent.
The test system of the next data set is NCI-H226. Put plainly: NCI-60 SRB screen. It is filed as cell-based. The note with it: Homo sapiens; NCI-H226, 10^–5 Molar; read-out: Percent growth inhibition. Here is the method: as §1, §2, §3
The subject of another data set is SF-539. Put plainly: NCI-60 SRB screen. It is filed as cell-based. Conditions: Homo sapiens; SF-539, 10^–5 Molar; read-out: Percent growth inhibition. Here is the method: as §1, §2, §3
A further data set deals with PC-3. Put plainly: NCI-60 SRB screen. It is filed as cell-based. The note with it: Homo sapiens; PC-3, 10^–5 Molar; read-out: Percent growth inhibition. Here is the method:
as §1, §2, §3

The test system of another data set is MDA-MB-468. Put plainly: NCI-60 SRB screen. Format: cell-based. The note with it: Homo sapiens; MDA-MB-468, 10^–5 Molar; read-out: Percent growth inhibition. Here is the method:
as §1, §2, §3

A further data set concerns SW-620. Put plainly: NCI-60 SRB screen. It is filed as cell-based. The note with it: Homo sapiens; SW-620, 10^–5 Molar; read-out: Percent growth inhibition. Here is the method:
as §1, §2, §3

Another data set deals with melanoma SK-MEL-5. Put plainly: NCI-60 SRB screen. Conditions: Homo sapiens; SK-MEL-5, 10^–5 Molar; read-out: Percent growth inhibition. It is filed as cell-based. Here is the method:
as §1, §2, §3

The next data set concerns T-47D. Put plainly: NCI-60 SRB screen. Conditions: Homo sapiens, T47D, 10^–5 Molar, read-out: Percent growth inhibition. Format: cell-based. Here is the method:
as §1, §2, §3

The test system of a further data set is SNB-19. Put plainly: NCI-60 SRB screen. Format: cell-based. Conditions: Homo sapiens; SNB-19, 10^–5 Molar; read-out: Percent growth inhibition. Here is the method: as §1, §2, §3
The test system of the next data set is IGROV1. Put plainly: NCI-60 SRB screen. Format: cell-based. Conditions: Homo sapiens, IGROV-1; IGROV1, 10^–5 Molar; read-out: Percent growth inhibition. Here is the method: as §1, §2, §3
A further data set relates to RXF 393. Put plainly: NCI-60 SRB screen. The note with it: Homo sapiens, 48 h; RXF 393, 10^–5 Molar; read-out: Percent growth inhibition. Format: cell-based. Here is the method: as §1, §2, §3
The test system of a further data set is LOX IMVI. Put plainly: NCI-60 SRB screen. It is filed as cell-based. The note with it: Homo sapiens, 10^–5 Molar, read-out: Percent growth inhibition. Here is the method: as §1, §2, §3
The test system of a further data set is OVCAR-5. Put plainly: NCI-60 SRB screen. The note with it: Homo sapiens; OVCAR-5, 10^–5 Molar; read-out: Percent growth inhibition. Format: cell-based. Here is the method:
as §1, §2, §3

The next data set deals with MDA-MB-231/ATCC. Put plainly: NCI-60 SRB screen. Format: cell-based. Conditions: Homo sapiens, 10^–5 Molar, read-out: Percent growth inhibition. Here is the method:
as §1, §2, §3

The next data set relates to NCI-H322M. Put plainly: NCI-60 SRB screen. Conditions: Homo sapiens, 10^–5 Molar, read-out: Percent growth inhibition. Format: cell-based. Here is the method: as §1, §2, §3
A further data set relates to 786-0. Put plainly: NCI-60 SRB screen. Conditions: Homo sapiens; 786-0, 10^–5 Molar; read-out: Percent growth inhibition. Format: cell-based. Here is the method: as §1, §2, §3
The subject of another data set is leukemia SR. Put plainly: NCI-60 SRB screen. Format: cell-based. Conditions: Homo sapiens; SR, 10^–5 Molar; read-out: Percent growth inhibition. Here is the method:
as §1, §2, §3

Structures are written as SMILES.

In turn, `CCn1cc(C(=O)O)c(=O)c2cc(F)c(N3CCN(CC(=O)Nc4ccc(S(=O)(=O)Nc5ncccn5)cc4)C(C)C3)c(F)c21` (stereo not shown) [Compound 5e, 1-Ethyl-6,8-difluoro-7-(3-methyl-4-(2-oxo-2-((4-(N-(pyrimidin-2-yl)sulfamoyl)phenyl)amino)ethyl)piperazin-1-yl)-4-oxo-1,4-dihydroquinoline-3-carboxylic acid] had a melting point of 282 to 284 °C. Further, the inhibition at 10 µM in the data set with HCT-15 was found to be 2.43%. In the data set with SN12C, the inhibition at 10 µM was determined as 3.07%. In addition, the inhibition at 10 µM in the data set on K-562 was 1.07%. Moreover, in the data set with MCF7, the inhibition at 10 µM was 5.24%. In the data set on UO-31, the inhibition at 10 µM stood at 9.64%. Besides, the inhibition at 10 µM with UACC-62 turned out to be 7.88%. In addition, the inhibition at 10 µM in the data set on SNB-75 was 6.39%. Moreover, in the data set with SF-268, the inhibition at 10 µM came out at 1.55%. Besides, the inhibition at 10 µM in the data set with CAKI-1 was determined as 7.59%. Moreover, the inhibition at 10 µM in the data set with HS 578T was 2.04%. In data set [1], the activity at 10 µM stood at 106%.
For the compound `CCn1cc(C(=O)O)c(=O)c2cc(F)c(N3CCN(CC(=O)Nc4ccc(S(=O)(=O)Nc5nccc(C)n5)cc4)C(C)C3)c(F)c21` (stereo not shown) [Compound 5f, 1-Ethyl-6,8-difluoro-7-(3-methyl-4-(2-((4-(N-(4-methylpyrimidin-2-yl)sulfamoyl)phenyl)amino)-2-oxoethyl)piperazin-1-yl)-4-oxo-1,4-dihydroquinoline-3-carboxylic acid], the melting point was in the range of 247 to 249 °C. Besides, the inhibition at 10 µM in the data set on NCI-H226 amounted to 2.92%. Also, the inhibition at 10 µM in the data set with SF-539 is 0.79%. The inhibition at 10 µM with SN12C was found to be 1.96%. The inhibition at 10 µM in the data set with PC-3 stood at 2.04%. For the same compound, the inhibition at 10 µM in the data set on MDA-MB-468 stood at 3.63%. Also, the inhibition at 10 µM in the data set on SW-620 was determined as 3.4%. Also, in the data set with melanoma SK-MEL-5, the inhibition at 10 µM amounted to 193%. Besides, in the data set with T-47D, the inhibition at 10 µM came to 1.12%. In addition, in the data set on MCF7, the inhibition at 10 µM was determined as 3.33%. Besides, the inhibition at 10 µM with SNB-19 was 1.26%. In addition, in the data set on UO-31, the inhibition at 10 µM came to 16.7%. In addition, the inhibition at 10 µM in the data set with UACC-62 is 5.79%. In addition, the inhibition at 10 µM in the data set with IGROV1 amounted to 0.3%. Also, the inhibition at 10 µM in the data set with SNB-75 stood at 4.26%. Moreover, in the data set on SF-268, the inhibition at 10 µM turned out to be 1.74%. Also, in the data set on RXF 393, the inhibition at 10 µM turned out to be 0.98%. Also, in the data set on LOX IMVI, the inhibition at 10 µM was 4.41%. The inhibition at 10 µM in the data set on OVCAR-5 worked out at 1.48%. For the same compound, the inhibition at 10 µM with CAKI-1 stood at 11.4%. Further, the inhibition at 10 µM in the data set on HS 578T amounted to 0.4%. For the same compound, the activity at 10 µM in [1] stood at 102%.
As for `CCn1cc(C(=O)O)c(=O)c2cc(F)c(N3CCN(C=O)C(C)C3)c(F)c21` (stereo not shown) [Compound 6, 1-Ethyl-6,8-difluoro-7-(4-formyl-3-methylpiperazin-1-yl)-4-oxo-1,4-dihydroquinoline-3-carboxylic acid], the melting point was 289 to 291 °C. Further, in the data set on NCI-H226, the inhibition at 10 µM was found to be 4.91%. Moreover, in the data set on MDA-MB-231/ATCC, the inhibition at 10 µM was 0.72%. Further, in the data set with MDA-MB-468, the inhibition at 10 µM came to 2.93%. In the data set with SW-620, the inhibition at 10 µM is 3.48%. In addition, the inhibition at 10 µM in the data set with UO-31 is 12.9%. Further, the inhibition at 10 µM in the data set with UACC-62 stood at 7.29%. For the same compound, in the data set with SNB-75, the inhibition at 10 µM was 5.57%. Also, in the data set with SF-268, the inhibition at 10 µM is 2.98%. In the data set on NCI-H322M, the inhibition at 10 µM came to 2.38%. Also, the inhibition at 10 µM in the data set with LOX IMVI turned out to be 6.49%. Also, the inhibition at 10 µM in the data set on CAKI-1 is 4.66%. Further, the inhibition at 10 µM with 786-0 is 1.77%. Further, the inhibition at 10 µM in the data set with leukemia SR was 27.8%. Also, in data set [1], the activity at 10 µM was 103%.
